Like-named read-outs stand apart in the source and are kept apart here.
What was measured:
[1] = system: Amaranthus tamariscinus (AMATA, common waterhemp), PPO resistant biotype 1 (w.2); type: in vivo; conditions: scale 0 to 100
[2] = system: Amaranthus tamariscinus (AMATA, common waterhemp), Sensitive (w.1); type: in vivo
[3] = system: sensitive (w.1, w.4) and resistant weeds (w.2, w.3, w.5, w.6); experiment: First greenhouse experiment, summary in words; type: in vivo, Amaranthus tamariscinus, Ambrosia elatior; conditions: table 2, 1 and 2 g/ha
[4] = system: Ambrosia elatior (AMBEL, common ragweed), Sensitive (w.4); type: in vivo; conditions: scale 0 to 100
[5] = system: Amaranthus tuberculatus (AMATU, tall waterhemp), Sensitive (w.7); experiment: Greenhouse herbicidal activity test, another (second) experiment, weed w.7; type: in vivo; conditions: scale 0 to 100
[6] = system: Amaranthus tamariscinus (AMATA, common waterhemp), PPO resistant biotype 2 (w.3); type: in vivo; conditions: scale 0 to 100
[7] = system: sensitive (w.10) and resistant weeds (w.11, w.12); experiment: Third greenhouse experiment, summary in words; type: in vivo, Amaranthus tamariscinus; conditions: table 4, 2 and 4 g/ha

## CCOC(=O)COc1ncccc1Oc1cc(-n2c(=O)cc(C(F)(F)F)n(C)c2=O)c(F)cc1Cl [compound (I).1]
[1]; use rate 1 g/ha
  Weed control (%) w.2: 100%
[1]; use rate 2 g/ha
  Weed control (%) w.2: 100%
[2]; use rate 1 g/ha, scale 0 to 100
  Weed control (%) w.1: 100%
[2]; use rate 2 g/ha, scale 0 to 100, 100 = complete destruction
  Weed control (%) w.1: 100%
[3]; sensitive w.1, w.4, resistant w.2, w.3, w.5, w.6
  activity on both sensitive and resistant weeds: very good activity
[4]; use rate 1 g/ha
  Weed control (%) w.4: 100%
[4]; use rate 2 g/ha
  Weed control (%) w.4: 100%
[5]; use rate 1 g/ha
  Weed control (%) 7: 100%
[5]; use rate 2 g/ha
  Weed control (%) 7: 100%
[6]; use rate 1 g/ha
  Weed control (%) w.3: 100%
[6]; use rate 2 g/ha
  Weed control (%) w.3: 100%

## C#CCN1C(=O)COc2cc(F)c(N3C(=O)C4=C(CCCC4)C3=O)cc21 [flumioxazin, reference compound]
[3]
  control of resistant in comparison to sensitive biotypes: much weaker control

## C#CCOc1cc(-n2nc3n(c2=O)CCCC3)c(Cl)cc1Cl [azafenidin, reference compound]
[7]
  control of resistant in comparison to sensitive biotypes: much weaker control

## CCOC(=O)COc1ccccc1Oc1cc(-n2c(=O)cc(C(F)(F)F)n(C)c2=O)c(F)cc1Cl [compound (I).4]
[7]; sensitive w.10, resistant w.11, w.12
  activity on both sensitive and resistant weeds: very good activity

Source: US11766044B2, “Method for controlling PPO resistant weeds” (BASF SE, priority 2016, dated 2023)
